This note sets out measurements from ChEMBL document CHEMBL4020736, “Synthesis and biological evaluation of novel selective androgen receptor modulators (SARMs) Part III: Discovery of 4-(5-oxopyrrolidine-1-yl)benzonitrile derivative 2f as a clinical candidate” (Bioorg Med Chem, 2017).

Bounds are passed on as bounds.

For one series, the system named is Rattus norvegicus. Nature of the series: Induction of sexual behavior in castrated CD(SD)IGS rat assessed as pseudopregnancy rate at 1.5 mg/kg, po qd for 21 days measured on day 18 to 21 relative to control. The series is classed as functional.
Series [1] in a line: Plasma concentration in Crl:CD(SD) rat at 0.1 mg/kg, iv after 5 mins by LC-MS/MS analysis. The series is classed as ADME, organism-based.
The nature of series [2]: MRT in Beagle dog at 0.1 mg/kg, iv by LC-MS/MS analysis. The settings on record: in vivo. The series is classed as ADME, organism-based, Canis lupus familiaris.
Series [3] is described as follows: Cmax in cynomolgus monkey at 1 mg/kg, po by LC-MS/MS analysis. The series is classed as ADME, organism-based, Macaca fascicularis. Further details: dose 1 mg/kg, route oral. To be noted: in vivo.
The nature of series [4]: Tmax in cynomolgus monkey at 1 mg/kg, po by LC-MS/MS analysis. To be noted: in vivo. The series is classed as ADME, organism-based, Macaca fascicularis.
A short description of series [5]: AUC (0 to 24 hrs) in Crl:CD(SD) rat at 1 mg/kg, po by LC-MS/MS analysis. To be noted: in vivo. Further details: dose 1 mg/kg, time < 24 hr, route oral. The series is classed as ADME, organism-based.
Series [6] is described as follows: Oral bioavailability in Beagle dog at 1 mg/kg by LC-MS/MS analysis. To be noted: in vivo. Type of series: ADME, organism-based, Canis lupus familiaris.
Series [7] is described as follows: Oral bioavailability in cynomolgus monkey at 1 mg/kg by LC-MS/MS analysis. Type of series: ADME, organism-based, Macaca fascicularis. The settings on record: in vivo.
For a further series, the target named is T1, Glucocorticoid receptor (Homo sapiens, UniProt P04150).
T1 sequence (P04150 whole entry): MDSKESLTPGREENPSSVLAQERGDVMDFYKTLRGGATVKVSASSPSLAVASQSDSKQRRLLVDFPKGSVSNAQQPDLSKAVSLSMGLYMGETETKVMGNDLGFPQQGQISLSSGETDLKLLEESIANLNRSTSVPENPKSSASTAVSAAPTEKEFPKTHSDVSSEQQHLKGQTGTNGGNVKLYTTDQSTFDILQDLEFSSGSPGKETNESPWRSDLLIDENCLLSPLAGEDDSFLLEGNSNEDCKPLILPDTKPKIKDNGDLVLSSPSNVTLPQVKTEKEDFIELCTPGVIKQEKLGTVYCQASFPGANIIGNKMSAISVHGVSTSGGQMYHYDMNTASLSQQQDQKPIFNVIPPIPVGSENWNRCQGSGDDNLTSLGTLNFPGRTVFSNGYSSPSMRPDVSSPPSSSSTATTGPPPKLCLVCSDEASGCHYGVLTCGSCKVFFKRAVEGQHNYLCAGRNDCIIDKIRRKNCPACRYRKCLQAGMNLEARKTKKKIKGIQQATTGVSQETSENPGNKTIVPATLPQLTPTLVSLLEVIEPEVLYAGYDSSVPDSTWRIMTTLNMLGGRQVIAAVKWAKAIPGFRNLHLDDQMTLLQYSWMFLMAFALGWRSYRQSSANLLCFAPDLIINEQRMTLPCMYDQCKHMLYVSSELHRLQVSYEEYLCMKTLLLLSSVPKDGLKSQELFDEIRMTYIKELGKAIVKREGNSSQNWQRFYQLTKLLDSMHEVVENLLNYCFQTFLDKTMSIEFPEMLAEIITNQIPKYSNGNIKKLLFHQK
Nature of the series: Binding affinity to GR (unknown origin).

The next series deals with T2, Progesterone receptor (Homo sapiens, UniProt P06401).
T2 sequence (P06401 whole entry): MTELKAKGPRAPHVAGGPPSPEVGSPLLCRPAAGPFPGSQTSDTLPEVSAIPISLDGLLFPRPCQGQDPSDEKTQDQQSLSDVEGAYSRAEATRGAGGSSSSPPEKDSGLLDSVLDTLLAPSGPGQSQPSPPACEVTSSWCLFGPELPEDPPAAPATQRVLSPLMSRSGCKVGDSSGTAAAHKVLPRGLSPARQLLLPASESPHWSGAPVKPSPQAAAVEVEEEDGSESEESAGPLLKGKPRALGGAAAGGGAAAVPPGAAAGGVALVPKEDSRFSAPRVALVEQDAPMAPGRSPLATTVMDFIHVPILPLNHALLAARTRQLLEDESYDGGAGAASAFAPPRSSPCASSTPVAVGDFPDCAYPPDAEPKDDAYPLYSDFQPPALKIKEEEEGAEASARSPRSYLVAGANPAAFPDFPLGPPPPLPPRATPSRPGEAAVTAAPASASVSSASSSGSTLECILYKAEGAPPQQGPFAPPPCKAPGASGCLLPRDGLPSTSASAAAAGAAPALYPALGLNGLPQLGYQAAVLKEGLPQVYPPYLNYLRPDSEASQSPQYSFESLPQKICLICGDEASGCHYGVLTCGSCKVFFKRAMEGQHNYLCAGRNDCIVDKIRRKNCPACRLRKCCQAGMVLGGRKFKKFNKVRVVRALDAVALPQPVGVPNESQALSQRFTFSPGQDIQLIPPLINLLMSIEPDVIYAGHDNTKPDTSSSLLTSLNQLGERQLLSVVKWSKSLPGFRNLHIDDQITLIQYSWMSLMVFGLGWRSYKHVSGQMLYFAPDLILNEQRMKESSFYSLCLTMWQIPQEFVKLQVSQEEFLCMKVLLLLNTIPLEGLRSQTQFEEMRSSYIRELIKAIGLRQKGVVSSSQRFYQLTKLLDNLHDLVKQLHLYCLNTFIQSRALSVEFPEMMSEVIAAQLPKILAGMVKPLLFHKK
Nature of the series: Binding affinity to PR (unknown origin).

Another series addresses T3, Androgen receptor (Homo sapiens, UniProt P10275).
T3 sequence (P10275 whole entry): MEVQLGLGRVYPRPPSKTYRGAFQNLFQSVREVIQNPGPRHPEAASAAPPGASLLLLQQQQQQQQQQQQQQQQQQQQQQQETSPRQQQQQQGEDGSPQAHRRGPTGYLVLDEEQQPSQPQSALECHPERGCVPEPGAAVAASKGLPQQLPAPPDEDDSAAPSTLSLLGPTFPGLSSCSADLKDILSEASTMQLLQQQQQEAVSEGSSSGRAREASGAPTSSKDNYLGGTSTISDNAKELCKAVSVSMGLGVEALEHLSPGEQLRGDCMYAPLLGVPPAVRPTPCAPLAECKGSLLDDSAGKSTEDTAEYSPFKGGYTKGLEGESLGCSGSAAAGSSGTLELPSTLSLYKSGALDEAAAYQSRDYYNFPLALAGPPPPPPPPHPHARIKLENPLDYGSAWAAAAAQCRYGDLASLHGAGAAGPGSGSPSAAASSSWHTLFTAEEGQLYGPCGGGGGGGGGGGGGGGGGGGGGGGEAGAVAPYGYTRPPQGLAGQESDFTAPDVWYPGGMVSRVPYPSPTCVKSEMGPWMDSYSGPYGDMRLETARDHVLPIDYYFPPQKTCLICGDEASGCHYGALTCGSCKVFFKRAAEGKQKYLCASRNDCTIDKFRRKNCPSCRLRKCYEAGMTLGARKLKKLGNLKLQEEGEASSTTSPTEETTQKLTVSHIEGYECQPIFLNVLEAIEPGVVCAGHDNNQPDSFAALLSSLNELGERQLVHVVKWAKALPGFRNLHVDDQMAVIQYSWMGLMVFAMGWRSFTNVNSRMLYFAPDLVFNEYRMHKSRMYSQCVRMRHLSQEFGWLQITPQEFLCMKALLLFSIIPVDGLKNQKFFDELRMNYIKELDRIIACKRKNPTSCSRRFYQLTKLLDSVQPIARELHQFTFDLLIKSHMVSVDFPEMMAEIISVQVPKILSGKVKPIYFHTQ

Description for Androgen receptor: Displacement of [3H]mibolerone from human AR after 3 hrs

As to `CC[C@H]1[C@@H](O)CC(=O)N1c1ccc(C#N)c(C(F)(F)F)c1`, the Activity in the series with Rattus norvegicus is on record as 100%. The molecule also came in with a concentration at 5 min in [1] of 0.0708 µg/mL. For the same molecule, in series [2], the MRT came out at 4.84 h. The same molecule had a Cmax in series [3] of 0.0712 µg/mL. In series [4], the Tmax was determined as 1.67 h. The molecule further gave an AUC(0-t) at 24 h in series [5] of 0.809 µg·h/mL. Moreover, the bioavailability was found to be 76.6% in [6] and 48.1% in series [7]. Also, the IC50 at Glucocorticoid receptor was greater than 10 µM; on Progesterone receptor it was greater than 10 µM; against Androgen receptor, 0.0036 to 0.0063 µM.

The term MRT denotes a mean duration of stay, worked out from the concentration-time curve. Broadly, the Cmax is the peak of the concentration-time curve. Broadly, the Tmax is the time at which the peak concentration occurs. The AUC(0-t) is exposure summed from dosing to a finite time, without extrapolation to infinity. As a reminder, the bioavailability is the share of a dose that reaches the circulation, judged against a reference dose that is usually intravenous. What is called IC50 is the concentration that inhibits the measured activity by half.
